Assay results as given in patent US20080139387A1, “Fungicidal Mixtures” (BASF Aktiengesellschaft, priority 2004, published 2008).

System: Cochliobolus miyabeanus
Assay: Activity against brown spot of rice caused by Cochliobolus miyabeanus, protective application
Assay type: in vivo
Conditions: individual active compound, rice seedlings, rated after six days
Description: The active compounds, separately or jointly, were prepared as a stock solution comprising 0.25% by weight of active compound in acetone or DMSO. 1% by weight of the emulsifier Uniperol® EL (wetting agent having emulsifying and dispersing action based on ethoxylated alkylphenols) was added to this solution, and the mixture was appropriately diluted with water to the desired concentration.
Use example—Activity against brown spot of rice caused by Cochliobolus miyabeanus, protective application Leaves of rice seedlings of the cultivar “Tai-Nong 67” which had been grown in pots were sprayed to runoff point with an aqueous suspension having the concentration of active compound stated below. The next day, the plants were inoculated with an aqueous spore suspension of Cochliobolus miyabeanus. The test plants were then placed in climatized chambers at 22-24° C. and 95-99% relative atmospheric humidity for six days. The extent of the development of infection on the leaves was then determined visually.
Evaluation is carried out by determining the infected leaf areas in percent. These percentages were converted into efficacies.
The efficacy (E) is calculated as follows using Abbot's formula: […]
α corresponds to the fungal infection of the treated plants in % and β corresponds to the fungal infection of the untreated (control) plants in % An efficacy of 0 means that the infection level of the treated plants corresponds to that of the untreated control plants; an efficacy of 100 means that the treated plants are not infected.
The expected efficacies of the mixtures of active compounds are determined using Colby's formula [R. S. Colby, Weeds, 15, 20-22 (1967)] and are compared with the observed efficacies.
E expected efficacy, expressed in % of the untreated control, when using the mixture of the active compounds A and B at the concentrations a and b x efficacy, expressed in % of the untreated control, when using active compound A at the concentration a y efficacy, expressed in % of the untreated control, when using active compound B at the concentration b

## CCCCCCCCCCCCCN1CC(C)OC(C)C1 (stereo not shown) [II (tridemorph), tridemorph]
1 ppm in the spray liquor
  Efficacy in % of the untreated control: 0%
4 ppm in the spray liquor
  Efficacy in % of the untreated control: 0%
16 ppm in the spray liquor
  Efficacy in % of the untreated control: 9%

## CC1CCN(c2c(-c3c(F)cc(F)cc3F)c(Cl)nc3ncnn23)CC1 [I, 5-chloro-7-(4-methylpiperidin-1-yl)-6-(2,4,6-trifluorophenyl)-[1,2,4]tri-azolo[1,5-a]pyrimidine]
4 ppm in the spray liquor
  Efficacy in % of the untreated control: 32%
